{
  "source": "paper PMC6364417",
  "about": "“Kinase inhibitor library screening identifies synergistic drug combinations effective in sensitive and resistant melanoma cells” (Journal of Experimental & Clinical Cancer Research : CR, 2019)",
  "assay_in_all_cases": "Kinase inhibitor library screening, PrestoBlue cell viability, 1 or 10 μM, 72 h",
  "key": {"[1]": {"test_system": "501Mel-XP cells (Vemurafenib-resistant)"}, "[2]": {"test_system": "IGR37-GP cells (Dabrafenib-resistant)"}, "[3]": {"test_system": "IGR37-XP cells (Vemurafenib-resistant)", "settings": "for cell viability (kinase inhibitor library screening): in %"}, "IGR37 cells (parental)": {"test_system": "IGR37 cells (parental)"}, "[4]": {"test_system": "A375-GP cells (Dabrafenib-resistant)"}, "[5]": {"test_system": "A375-XP cells (Vemurafenib-resistant)"}, "[6]": {"test_system": "501Mel-GP cells (Dabrafenib-resistant)"}, "A375 cells (parental)": {"test_system": "A375 cells (parental)"}, "501Mel cells (parental)": {"test_system": "501Mel cells (parental)", "outline": "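Single-point screen at two doses over three days. Parental and BRAF-inhibitor-resistant sublines (XP: Vemurafenib; GP: Dabrafenib) were assessed by PrestoBlue viability, reported relative to untreated cells.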"}},
  "data": [
    {"smiles": "Cn1cc(C2=C(c3ccc(Cl)cc3Cl)C(=O)NC2=O)c2ccccc21", "note": "[SB 216763]", "values": [
      {"measurement": "viability at 1 µM", "setting": "[1]; Homo sapiens, 72 h, read-out: cell viability, 501Mel XP, 1μΜ", "result": 96.9, "unit": "%"},
      {"measurement": "viability at 10 µM", "setting": "[1]; Homo sapiens, 72 h, read-out: cell viability, 501Mel XP, 10μΜ", "result": 73.3, "unit": "%"},
      {"measurement": "viability at 1 µM", "setting": "[2]; Homo sapiens, IGR-37, 72 h, read-out: cell viability, IGR37 GP, 1μΜ", "result": 105, "unit": "%"},
      {"measurement": "viability at 10 µM", "setting": "[2]; Homo sapiens, IGR-37, 72 h, read-out: cell viability, IGR37 GP, 10μΜ", "result": 88.4, "unit": "%"},
      {"measurement": "viability at 1 µM", "setting": "[3]; Homo sapiens, IGR-37, 72 h, read-out: cell viability, IGR37 XP, 1μΜ", "result": 111, "unit": "%"},
      {"measurement": "viability at 10 µM", "setting": "[3]; Homo sapiens, IGR-37, 72 h, read-out: cell viability, IGR37 XP, 10μΜ", "result": 65.4, "unit": "%"},
      {"measurement": "viability at 1 µM", "setting": "IGR37 cells (parental); Homo sapiens, IGR-37, 72 h, read-out: cell viability, IGR37 Parental, 1μΜ", "result": 116, "unit": "%"},
      {"measurement": "viability at 10 µM", "setting": "IGR37 cells (parental); Homo sapiens, IGR-37, 72 h, read-out: cell viability, IGR37 Parental, 10μΜ", "result": 99, "unit": "%"},
      {"measurement": "viability at 1 µM", "setting": "[4]; Homo sapiens, A-375, 72 h, read-out: cell viability, A375 GP, 1μΜ", "result": 104, "unit": "%"},
      {"measurement": "viability at 10 µM", "setting": "[4]; Homo sapiens, A-375, 72 h, read-out: cell viability, A375 GP, 10μΜ", "result": 67, "unit": "%"},
      {"measurement": "viability at 1 µM", "setting": "[5]; Homo sapiens, A-375, 72 h, read-out: cell viability, A375 XP, 1μΜ", "result": 109, "unit": "%"},
      {"measurement": "viability at 10 µM", "setting": "[5]; Homo sapiens, A-375, 72 h, read-out: cell viability, A375 XP, 10μΜ", "result": 79.9, "unit": "%"},
      {"measurement": "viability at 1 µM", "setting": "[6]; Homo sapiens, 72 h, read-out: cell viability, 501Mel GP, 1μΜ", "result": 106, "unit": "%"},
      {"measurement": "viability at 10 µM", "setting": "[6]; Homo sapiens, 72 h, read-out: cell viability, 501Mel GP, 10μΜ", "result": 74.1, "unit": "%"},
      {"measurement": "viability at 1 µM", "setting": "A375 cells (parental); Homo sapiens, A-375, 72 h, read-out: cell viability, A375 Parental, 1μΜ", "result": 111, "unit": "%"},
      {"measurement": "viability at 10 µM", "setting": "A375 cells (parental); Homo sapiens, A-375, 72 h, read-out: cell viability, A375 Parental, 10μΜ", "result": 68.1, "unit": "%"},
      {"measurement": "viability at 1 µM", "setting": "501Mel cells (parental); Homo sapiens, 72 h, read-out: cell viability, 501Mel Parental, 1μΜ", "result": 101, "unit": "%"},
      {"measurement": "viability at 10 µM", "setting": "501Mel cells (parental); Homo sapiens, 72 h, read-out: cell viability, 501Mel Parental, 10μΜ", "result": 82.6, "unit": "%"}
    ]},
    {"smiles": "Cc1nc(Nc2ncc(C(=O)Nc3c(C)cccc3Cl)s2)cc(N2CCN(CCO)CC2)n1", "note": "[Dasatinib (BMS-354825)]", "values": [
      {"measurement": "cell viability (kinase inhibitor library screening)", "setting": "[1]; 501Mel XP, 1μΜ, in %", "result": 88.2},
      {"measurement": "cell viability (kinase inhibitor library screening)", "setting": "[1]; 501Mel XP, 10μΜ, in %", "result": 63.3},
      {"measurement": "cell viability (kinase inhibitor library screening)", "setting": "[2]; IGR37 GP, 1μΜ, in %", "result": 91.4},
      {"measurement": "cell viability (kinase inhibitor library screening)", "setting": "[2]; IGR37 GP, 10μΜ, in %", "result": 66.8},
      {"measurement": "cell viability (kinase inhibitor library screening)", "setting": "[3]; IGR37 XP, 1μΜ", "result": 88.2},
      {"measurement": "cell viability (kinase inhibitor library screening)", "setting": "[3]; IGR37 XP, 10μΜ", "result": 39.8},
      {"measurement": "cell viability (kinase inhibitor library screening)", "setting": "IGR37 cells (parental); IGR37 Parental, 1μΜ, in %", "result": 98.7},
      {"measurement": "cell viability (kinase inhibitor library screening)", "setting": "IGR37 cells (parental); IGR37 Parental, 10μΜ, in %", "result": 80.2},
      {"measurement": "cell viability (kinase inhibitor library screening)", "setting": "[4]; A375 GP, 1μΜ, in %", "result": 63.7},
      {"measurement": "cell viability (kinase inhibitor library screening)", "setting": "[4]; A375 GP, 10μΜ, in %", "result": 48.1},
      {"measurement": "cell viability (kinase inhibitor library screening)", "setting": "[5]; A375 XP, 1μΜ, in %", "result": 70.6},
      {"measurement": "cell viability (kinase inhibitor library screening)", "setting": "[5]; A375 XP, 10μΜ, in %", "result": 57.8},
      {"measurement": "cell viability (kinase inhibitor library screening)", "setting": "[6]; 501Mel GP, 1μΜ, in %", "result": 96.7},
      {"measurement": "cell viability (kinase inhibitor library screening)", "setting": "[6]; 501Mel GP, 10μΜ, in %", "result": 77.1},
      {"measurement": "cell viability (kinase inhibitor library screening)", "setting": "A375 cells (parental); A375 Parental, 1μΜ, in %", "result": 68.7},
      {"measurement": "cell viability (kinase inhibitor library screening)", "setting": "A375 cells (parental); A375 Parental, 10μΜ, in %", "result": 30.8},
      {"measurement": "cell viability (kinase inhibitor library screening)", "setting": "501Mel cells (parental); 501Mel Parental, 1μΜ, in %", "result": 91.7},
      {"measurement": "cell viability (kinase inhibitor library screening)", "setting": "501Mel cells (parental); 501Mel Parental, 10μΜ, in %", "result": 73.7}
    ]},
    {"smiles": "Cc1cc2c(F)c(Oc3ncnn4cc(OC[C@@H](C)O)c(C)c34)ccc2[nH]1", "note": "[Brivanib (BMS-540215)]", "values": [
      {"measurement": "cell viability (kinase inhibitor library screening)", "setting": "[1]; 501Mel XP, 1μΜ, in %", "result": 100.3},
      {"measurement": "cell viability (kinase inhibitor library screening)", "setting": "[1]; 501Mel XP, 10μΜ, in %", "result": 80.7},
      {"measurement": "cell viability (kinase inhibitor library screening)", "setting": "[2]; IGR37 GP, 10μΜ, in %", "result": 95.2},
      {"measurement": "cell viability (kinase inhibitor library screening)", "setting": "[3]; IGR37 XP, 1μΜ", "result": 107.9},
      {"measurement": "cell viability (kinase inhibitor library screening)", "setting": "[3]; IGR37 XP, 10μΜ", "result": 73.1},
      {"measurement": "cell viability (kinase inhibitor library screening)", "setting": "IGR37 cells (parental); IGR37 Parental, 10μΜ, in %", "result": 99.8},
      {"measurement": "cell viability (kinase inhibitor library screening)", "setting": "[4]; A375 GP, 1μΜ, in %", "result": 103.4},
      {"measurement": "cell viability (kinase inhibitor library screening)", "setting": "[4]; A375 GP, 10μΜ, in %", "result": 79.9},
      {"measurement": "cell viability (kinase inhibitor library screening)", "setting": "[5]; A375 XP, 1μΜ, in %", "result": 104.1},
      {"measurement": "cell viability (kinase inhibitor library screening)", "setting": "[5]; A375 XP, 10μΜ, in %", "result": 89.7},
      {"measurement": "cell viability (kinase inhibitor library screening)", "setting": "[6]; 501Mel GP, 1μΜ, in %", "result": 106.3},
      {"measurement": "cell viability (kinase inhibitor library screening)", "setting": "[6]; 501Mel GP, 10μΜ, in %", "result": 89.6},
      {"measurement": "cell viability (kinase inhibitor library screening)", "setting": "A375 cells (parental); A375 Parental, 1μΜ, in %", "result": 105.2},
      {"measurement": "cell viability (kinase inhibitor library screening)", "setting": "A375 cells (parental); A375 Parental, 10μΜ, in %", "result": 84.3},
      {"measurement": "cell viability (kinase inhibitor library screening)", "setting": "501Mel cells (parental); 501Mel Parental, 1μΜ, in %", "result": 104.3},
      {"measurement": "cell viability (kinase inhibitor library screening)", "setting": "501Mel cells (parental); 501Mel Parental, 10μΜ, in %", "result": 93.4}
    ]},
    {"smiles": "COc1cccc(-c2cc(=O)c3ccccc3o2)c1N", "note": "[PD98059]", "values": [
      {"measurement": "cell viability, 501Mel XP, 1μΜ", "setting": "[1]; 501Mel XP, 1μΜ, 72 h, in %", "result": 97.3},
      {"measurement": "cell viability, 501Mel XP, 10μΜ", "setting": "[1]; 501Mel XP, 10μΜ, 72 h, in %", "result": 80.0},
      {"measurement": "cell viability, IGR37 GP, 10μΜ", "setting": "[2]; IGR37 GP, 10μΜ, 72 h", "result": 88.7, "unit": "%"},
      {"measurement": "cell viability, IGR37 GP, 1μΜ", "setting": "[2]; IGR37 GP, 1μΜ, 72 h, in %", "result": 94.1},
      {"measurement": "cell viability, IGR37 XP, 10μΜ", "setting": "[3]; IGR37 XP, 10μΜ, 72 h", "result": 61.9, "unit": "%"},
      {"measurement": "cell viability, IGR37 Parental, 10μΜ", "setting": "IGR37 cells (parental); IGR37 Parental, 10μΜ, 72 h, in %", "result": 81.4},
      {"measurement": "cell viability, A375 GP, 1μΜ", "setting": "[4]; A375 GP, 1μΜ, 72 h, in %", "result": 95.5},
      {"measurement": "cell viability, A375 GP, 10μΜ", "setting": "[4]; A375 GP, 10μΜ, 72 h, in %", "result": 83.6},
      {"measurement": "cell viability, A375 XP, 1μΜ", "setting": "[5]; A375 XP, 1μΜ, 72 h, in %", "result": 102.6},
      {"measurement": "cell viability, A375 XP, 10μΜ", "setting": "[5]; A375 XP, 10μΜ, 72 h, in %", "result": 94.1},
      {"measurement": "cell viability, 501Mel GP, 1μΜ", "setting": "[6]; 501Mel GP, 1μΜ, 72 h, in %", "result": 104.1},
      {"measurement": "cell viability, 501Mel GP, 10μΜ", "setting": "[6]; 501Mel GP, 10μΜ, 72 h, in %", "result": 84.1},
      {"measurement": "cell viability, A375 Parental, 1μΜ", "setting": "A375 cells (parental); A375 Parental, 1μΜ, 72 h, in %", "result": 98.4},
      {"measurement": "cell viability, 501Mel Parental, 1μΜ", "setting": "501Mel cells (parental); 501Mel Parental, 1μΜ, 72 h, in %", "result": 98.8},
      {"measurement": "cell viability, 501Mel Parental, 10μΜ", "setting": "501Mel cells (parental); 501Mel Parental, 10μΜ, 72 h, in %", "result": 79.8}
    ]}
  ]
}
